# Assays:
# [1] = Post-emergent Test III, herbicidal activity in wheat and barley; format: in vivo, Lolium multiflorum, Lolium rigidum; details: Lolium multiflorum, post-emergence, 504 h, Table 9, post-emergent, 21 d, read-out: Visual Growth Reduction (%) 21 Days After Application LOLSS; for pest or weed control at 35 g/ha: 35 g ai/ha; for pest or weed control at 70 g/ha: 70 g ai/ha
# Protocol: (§1) Post-emergent Test III. Seeds of the desired test plant species were planted in Sun Gro MetroMix® 306 planting mixture, which typically has a pH of 6.0 to 6.8 and an organic matter content of about 30 percent, in plastic pots with a surface area of 103.2 square centimeters (cm^2). When required to ensure good germination and healthy plants, a fungicide treatment and/or other chemical or physical treatment was applied. The plants were grown for 7-36 days (d) in a greenhouse with an approximate 14 hour (h) photoperiod which was maintained at about 18° C. during the day and 17° C. during the night. Nutrients and water were added on a regular basis and supplemental lighting was provided with overhead metal halide 1000-Watt lamps as necessary. The plants were employed for testing when they reached the second or third true leaf stage.
# (§2) A weighed amount, determined by the highest rate to be tested, of each test compound was placed in a 25 mL glass vial and was dissolved in 4 mL of a 97:3 v/v mixture of acetone and DMSO to obtain concentrated stock solutions. […] The concentrated stock solutions obtained were diluted with 20 mL of an aqueous mixture containing acetone, water, isopropyl alcohol, DMSO, Agri-Dex crop oil concentrate, and X-77 surfactant in a 48:39:10:1.5:1.5:0.02 v/v ratio to obtain spray solutions containing the highest application rates. Additional application rates were obtained by serial dilution of 12 mL of the high rate solution into a solution containing 2 mL of 97:3 v/v mixture of acetone and DMSO and 10 mL of an aqueous mixture containing acetone, water, isopropyl alcohol, DMSO, Agri-Dex crop oil concentrate, and X-77 surfactant in a 48:39:10:1.5:1.5:0.02 v/v ratio to obtain ½×, ¼×, ⅛× and 1/16× rates of the high rate. Compound requirements are based upon a 12 mL application volume at a rate of 187 liters per hectare (L/ha). Formulated compounds were applied to the plant material with an overhead Mandel track sprayer equipped with 8002E nozzles calibrated to deliver 187 L/ha over an application area of 0.503 square meters at a spray height of 18 inches (43 cm) above the average plant canopy height. Control plants were sprayed in the same manner with the solvent blank.
# (§3) The treated plants and control plants were placed in a greenhouse as described above and watered by subirrigation to prevent wash-off of the test compounds. After 21 d, the condition of the test plants as compared with that of the untreated plants was determined visually and scored on a scale of 0 to 100 percent where 0 corresponds to no injury and 100 corresponds to complete kill.
# (§4) By applying the well-accepted probit analysis as described by J. Berkson in Journal of the American Statistical Society, 48, 565 (1953) and by D. Finney in “Probit Analysis” Cambridge University Press (1952), herbicidal injury of a specific compound at various rates can be used to calculate GR20, GR50, GR80 and GR90 values, which are defined as growth reduction factors that correspond to the effective dose of herbicide required to provide plant growth reduction (GR) of 20 percent, 50 percent, 80 percent and 90 percent, respectively. Probit analysis was applied to data collected from multiple dose rates of individual compounds utilizing the procedures explained in the following examples. The analysis of those dose rates is captured in the following tables.
# [2] = system: APESV: bentgrass (Apera spica-venti); test: as above; format: in vivo; details: Table 9, 21 d; for pest or weed control at 35 g/ha: 35 g ai/ha; for pest or weed control at 70 g/ha: 70 g ai/ha; for GR50 APESV: dose for 50 percent growth reduction; for GR50 APESV / GR80 APESV: probit analysis; for GR80 APESV: dose for 80 percent growth reduction
# Protocol: as §1, §2, §3, §4
# [3] = system: SETVI: green foxtail (Setaria viridis); test: as above; format: in vivo; details: Table 9, 21 d; for pest or weed control at 35 g/ha: 35 g ai/ha; for pest or weed control at 70 g/ha: 70 g ai/ha; for GR50 SETVI: dose for 50 percent growth reduction; for GR50 SETVI / GR80 SETVI: probit analysis; for GR80 SETVI: dose for 80 percent growth reduction
# Protocol: as §1, §2, §3, §4
# [4] = system: LOLSS: ryegrass including, Italian ryegrass (Lolium multiflorum), rigid ryegrass (Lolium rigidum), annual ryegrass (Lolium multiflorum subsp. Gaudini); test: as above; format: in vivo; details: Table 9, probit analysis, 21 d; for GR50 LOLSS: dose for 50 percent growth reduction; for GR80 LOLSS: dose for 80 percent growth reduction
# Protocol: as §1, §2, §3, §4
# [5] = system: HORSS: barley, including spring and winter (Hordeum vulgare); test: as above; format: in vivo; details: Table 9, 21 d; for pest or weed control at 35 g/ha: 35 g ai/ha; for pest or weed control at 70 g/ha: 70 g ai/ha; for GR20 HORSS: dose for 20 percent growth reduction, probit analysis
# Protocol: as §1, §2, §3, §4
# [6] = system: TRZSS: wheat, including spring and winter (Triticum aestivum); test: as above; format: in vivo; details: Table 9, 21 d; for GR20 TRZSS: dose for 20 percent growth reduction, probit analysis; for pest or weed control at 35 g/ha: 35 g ai/ha; for pest or weed control at 70 g/ha: 70 g ai/ha
# Protocol: as §1, §2, §3, §4
# [7] = system: KCHSC: kochia (Kochia scoparia); test: as above; format: in vivo; details: Table 9, 21 d; for pest or weed control at 35 g/ha: 35 g ai/ha; for pest or weed control at 70 g/ha: 70 g ai/ha; for GR50 KCHSC: dose for 50 percent growth reduction; for GR50 KCHSC / GR80 KCHSC: probit analysis; for GR80 KCHSC: dose for 80 percent growth reduction
# Protocol: as §1, §2, §3, §4
# [8] = Apera spica-venti, post-emergence, 504 h, post-emergent, read-out: Visual Growth Reduction (%) 21 Days After Application APESV
# [9] = Setaria viridis, post-emergence, 504 h, post-emergent, read-out: Visual Growth Reduction (%) 21 Days After Application SETVI
# [10] = Hordeum vulgare, post-emergence, 504 h, post-emergent, read-out: Visual Growth Reduction (%) 21 Days After Application HORSS
# [11] = Triticum aestivum, post-emergence, 504 h, post-emergent, read-out: Visual Growth Reduction (%) 21 Days After Application TRZSS
# [12] = Bassia scoparia, post-emergence, 504 h, post-emergent, read-out: Visual Growth Reduction (%) 21 Days After Application KCHSC
SMILES,pest or weed control at 35 g/ha [1] [%],pest or weed control at 70 g/ha [1] [%],"pest or weed control at 35 g/ha [2, 8] [%]","pest or weed control at 70 g/ha [2, 8] [%]",GR50 APESV [2] [g ai/ha],GR80 APESV [2] [g ai/ha],"pest or weed control at 35 g/ha [3, 9] [%]","pest or weed control at 70 g/ha [3, 9] [%]",GR50 SETVI [3] [g ai/ha],GR80 SETVI [3] [g ai/ha],GR50 LOLSS [4] [g ai/ha],GR80 LOLSS [4] [g ai/ha],"pest or weed control at 35 g/ha [5, 10] [%]","pest or weed control at 70 g/ha [5, 10] [%]",GR20 HORSS [5] [g ai/ha],GR20 TRZSS [6] [g ai/ha],"pest or weed control at 35 g/ha [6, 11] [%]","pest or weed control at 70 g/ha [6, 11] [%]","pest or weed control at 35 g/ha [7, 12] [%]","pest or weed control at 70 g/ha [7, 12] [%]",further results
Nc1c(Cl)c(C(=O)O)nc(-c2ccc(C(F)(F)F)c(F)c2)c1Cl [Compound 146],0 to 29,0 to 29,95 to 100,95 to 100,23,34,45 to 59,75 to 84,41,76,>140,>140,75 to 84,85 to 94,1,1,75 to 84,85 to 94,0 to 29,0 to 29,"pest or weed control at 140 g/ha ([1]; 140 g ai/ha): 0 to 29%; pest or weed control at 140 g/ha ([2]; Apera spica-venti, post-emergence, 504 h, 140 g ai/ha, post-emergent, read-out: Visual Growth Reduction (%) 21 Days After Application APESV): 95 to 100%; pest or weed control at 140 g/ha ([3]; Setaria viridis, post-emergence, 504 h, 140 g ai/ha, post-emergent, read-out: Visual Growth Reduction (%) 21 Days After Application SETVI): 95 to 100%; pest or weed control at 140 g/ha ([5]; Hordeum vulgare, post-emergence, 504 h, 140 g ai/ha, post-emergent, read-out: Visual Growth Reduction (%) 21 Days After Application HORSS): 95 to 100%; pest or weed control at 140 g/ha ([6]; Triticum aestivum, post-emergence, 504 h, 140 g ai/ha, post-emergent, read-out: Visual Growth Reduction (%) 21 Days After Application TRZSS): 85 to 94%; pest or weed control at 140 g/ha ([7]; Bassia scoparia, post-emergence, 504 h, 140 g ai/ha, post-emergent, read-out: Visual Growth Reduction (%) 21 Days After Application KCHSC): 0 to 29%; GR50 KCHSC [7]: >140 g ai/ha; GR80 KCHSC [7]: >140 g ai/ha"
C=Cc1c(C(=O)O)nc(-c2ccc(C#N)cc2)c(F)c1N [Compound 150],0 to 29,0 to 29,0 to 29,0 to 29,>140,>140,0 to 29,30 to 44,79,>140,>140,>140,30 to 44,45 to 59,8,1,60 to 74,60 to 74,60 to 74,60 to 74,GR50 KCHSC [7]: 7 g ai/ha; GR80 KCHSC [7]: >140 g ai/ha

# — patent publication US9113629B2, “4-amino-6-(4-substituted-phenyl)-picolinates and 6-amino-2-(4-substituted-phenyl)-pyrimidine-4-carboxylates and their use as herbicides” (DOW AGROSCIENCES LLC, priority 2013, dated 2015)
